Legend:
human CDK4/cyclin D3 = target: T1, human CDK4/cyclin D3 (Homo sapiens, UniProt P11802); assay: Inhibition of CDK4/cyclin D retinoblastoma kinase activity (Ki; % inhibition); format: biochemical; conditions: at 0.03 μM
T1 construct: made in house; host or cells: insect cells co-infected with baculovirus vectors
Method in brief: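 Insect-cell-expressed CDK4 with truncated cyclin D3 (1-264), 5 nM, phosphorylating His-tagged Rb fragment (386-928) with 25 μM [32/33P]ATP at pH 7.4, 30 °C, 20 min (60 min for tight binders). Filter capture, phosphorimager read; % inhibition at 30 nM compound, Ki from competitive or tight-binding fits.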

HCT-116 cell line = assay: Inhibition of cell growth, MTT tetrazolium salt assay; format: cell-based; conditions: HCT-116, at 0.25 μM
Method in brief: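 HCT-116 cells in McCoy's 5A were dosed 4 h after plating with compounds in 0.5% DMSO and grown 3–5 days at 37 °C. Then 0.2 mg/mL MTT was added for 4 h and formazan absorbance read at 540 nm. IC50/IC90 came from semi-log plots against DMSO-only controls.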

CDK2/cyclin A = target: T2, CDK2/cyclin A (Homo sapiens, UniProt P24941); assay: Inhibition of CDK2/cyclin A retinoblastoma kinase activity (Ki; % inhibition); format: biochemical; conditions: at 0.03 μM
T2 construct: made in house; host or cells: CDK2: insect cells (baculovirus); cyclin A: E. coli
Method in brief: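 Radiometric filter assay of CDK2/proteolyzed cyclin A (baculovirus-expressed human CDK2, 10 or 19 nM) phosphorylating an Rb fragment with 25 μM [³²P/³³P]ATP in pH 7.4 HEPES, 2% DMSO, at 30 °C for 60 or 75 min under initial-rate conditions. Library compounds screened at 30 nM for % inhibition; apparent Ki from concentration series fit to competitive or tight-binding inhibition equations.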

T1 sequence (P11802 whole entry): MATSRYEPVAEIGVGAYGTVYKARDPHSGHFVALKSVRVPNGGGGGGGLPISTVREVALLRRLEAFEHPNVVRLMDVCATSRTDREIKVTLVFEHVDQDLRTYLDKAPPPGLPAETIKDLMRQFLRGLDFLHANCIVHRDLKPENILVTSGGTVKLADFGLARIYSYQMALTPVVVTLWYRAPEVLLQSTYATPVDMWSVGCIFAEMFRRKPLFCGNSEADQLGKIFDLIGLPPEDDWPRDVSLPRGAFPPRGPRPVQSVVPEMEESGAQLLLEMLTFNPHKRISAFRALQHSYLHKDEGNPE
T1 sequence (P30281 1-264 partner limits assumed): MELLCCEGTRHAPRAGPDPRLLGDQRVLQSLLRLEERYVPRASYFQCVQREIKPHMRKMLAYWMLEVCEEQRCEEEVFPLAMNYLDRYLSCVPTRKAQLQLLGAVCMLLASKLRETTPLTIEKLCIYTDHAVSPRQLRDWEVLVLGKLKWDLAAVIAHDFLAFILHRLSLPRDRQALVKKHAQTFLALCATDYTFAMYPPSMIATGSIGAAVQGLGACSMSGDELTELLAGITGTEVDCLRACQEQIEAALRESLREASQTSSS

Row | SMILES | CDK4 % Inhibition at 0.03 μM (human CDK4/cyclin D3) | HCT-116 % Inhibition at 0.25 μM (HCT-116 cell line) | CDK2 % Inhibition at 0.03 μM (CDK2/cyclin A) | HCT-116 % Inhibition at 0.25 μM (HCT-116 cell line; 0.25 µM)
1 | CN(Cc1cccnc1)C(=O)c1ccc(Nc2nc(N)c(C(=O)c3c(F)cccc3F)s2)cc1 [Example G20] | 9% | 50% | 10% | 
2 | C=CCN1CCN(C(=O)c2ccc(Nc3nc(N)c(C(=O)c4c(F)cccc4F)s3)cc2)CC1 [Example G21] | 14% | 46% | 3% | 
3 | COc1ccc(C(F)(F)F)cc1NC(=O)c1ccc(Nc2nc(N)c(C(=O)c3c(F)cccc3F)s2)cc1 [Example G22] | −3% | 50% | 2% | 
4 | COc1ccccc1NC(=O)c1ccc(Nc2nc(N)c(C(=O)c3c(F)cccc3F)s2)cc1 [Example G23] | 7% | 63% | 8% | 
5 | CCOC(=O)c1cccc(NC(=O)c2ccc(Nc3nc(N)c(C(=O)c4c(F)cccc4F)s3)cc2)c1 [Example G24] | 11% | 58% | 7% | 
6 | CCN(CCO)C(=O)c1ccc(Nc2nc(N)c(C(=O)c3c(F)cccc3F)s2)cc1 [Example G25] | 10% | 52% | −16% | 
7 | Nc1nc(Nc2ccc(C(=O)N3CCSCC3)cc2)sc1C(=O)c1c(F)cccc1F [Example G26] | 13% | 53% | 3% | 
8 | C=CCN(C)C(=O)c1ccc(Nc2nc(N)c(C(=O)c3c(F)cccc3F)s2)cc1 [Example G27] | 4% | 60% | −6% | 
9 | CCN(Cc1ccncc1)C(=O)c1ccc(Nc2nc(N)c(C(=O)c3c(F)cccc3F)s2)cc1 [Example G28] | 19% | 66% | 1% | 
10 | CN(C)C1CCN(C(=O)c2ccc(Nc3nc(N)c(C(=O)c4c(F)cccc4F)s3)cc2)C1 (stereo not drawn) [Example G29] | 32% |  | 4% | 55%
11 | Nc1nc(Nc2ccc(C(=O)Nc3ccc(-c4csnn4)cc3)cc2)sc1C(=O)c1c(F)cccc1F [Example G30] | 5% | 82% | 5% | 
12 | CSc1ccccc1NC(=O)c1ccc(Nc2nc(N)c(C(=O)c3c(F)cccc3F)s2)cc1 [Example G31] | 4% | 75% | 4% | 
13 | Nc1nc(Nc2ccc(C(=O)N3CCN(C(=O)c4ccco4)CC3)cc2)sc1C(=O)c1c(F)cccc1F [Example G32] | 27% | 55% | 8% | 
14 | Nc1nc(Nc2ccc(C(=O)N3CCSC3)cc2)sc1C(=O)c1c(F)cccc1F [Example G33] | 10% | 54% | −3% | 
15 | Nc1nc(Nc2ccc(C(=O)N3CCC4(CC3)OCCO4)cc2)sc1C(=O)c1c(F)cccc1F [Example G34] | 9% | 53% | 8% | 
16 | CCN(CC)CCN(CC)C(=O)c1ccc(Nc2nc(N)c(C(=O)c3c(F)cccc3F)s2)cc1 [Example G35] | 8% | 53% | 5% | 
17 | COCCN(CCOC)C(=O)c1ccc(Nc2nc(N)c(C(=O)c3c(F)cccc3F)s2)cc1 [Example G36] | 6% | 62% | −4% | 
18 | CN(C)C1CCN(C(=O)c2ccc(Nc3nc(N)c(C(=O)c4c(F)cccc4F)s3)cc2)C1 (stereo not drawn) [Example G37] | 25% |  | 11% | 65%
19 | Cc1cc(NC(=O)c2ccc(Nc3nc(N)c(C(=O)c4c(F)cccc4F)s3)cc2)ccc1Cl [Example G38] | 7% | 65% | 3% | 
20 | COC(=O)c1ccccc1NC(=O)c1ccc(Nc2nc(N)c(C(=O)c3c(F)cccc3F)s2)cc1 [Example G39] | −1% | 65% | −4% | 
21 | Nc1nc(Nc2ccc(C(=O)N3CC=CC3)cc2)sc1C(=O)c1c(F)cccc1F [Example G40] | 18% | 61% | 4% | 

Row | SMILES | CDK4 % Inhibition at 0.03 μM (human CDK4/cyclin D3) | HCT-116 % Inhibition at 0.25 μM (HCT-116 cell line) | CDK2 % Inhibition at 0.03 μM (CDK2/cyclin A) | HCT-116 % Inhibition at 0.25 μM (HCT-116 cell line; 0.25 µM)
22 | NC(=O)C1CCCN(C(=O)c2ccc(Nc3nc(N)c(C(=O)c4c(F)cccc4F)s3)cc2)C1 (stereo not drawn) [Example G41] | 10% | 50% | 11% | 
23 | CN(CC1OCCO1)C(=O)c1ccc(Nc2nc(N)c(C(=O)c3c(F)cccc3F)s2)cc1 [Example G42] | 7% | 54% | 10% | 
24 | NC(=O)C1CCN(C(=O)c2ccc(Nc3nc(N)c(C(=O)c4c(F)cccc4F)s3)cc2)CC1 [Example G43] | 12% | 62% | 5% | 
25 | Cc1ccc(NC(=O)c2ccc(Nc3nc(N)c(C(=O)c4c(F)cccc4F)s3)cc2)c(Cl)c1 [Example G44] | 14% | 72% | 8% | 
26 | COc1ccc(NC(=O)c2ccc(Nc3nc(N)c(C(=O)c4c(F)cccc4F)s3)cc2)c(OC)c1 [Example G45] | 16% | 89% | 16% | 
27 | CCOC(=O)c1ccccc1NC(=O)c1ccc(Nc2nc(N)c(C(=O)c3c(F)cccc3F)s2)cc1 [Example G46] | 11% | 58% | 4% | 
28 | Nc1nc(Nc2ccc(C(=O)N3CCCC3)cc2)sc1C(=O)c1c(F)cccc1F [Example G47] | 6% | 53% | −15% | 
29 | Nc1nc(Nc2ccc(C(=O)N3CCCC(CO)C3)cc2)sc1C(=O)c1c(F)cccc1F (stereo not drawn) [Example G48] | 3% | 50% | 1% | 
30 | Nc1nc(Nc2ccc(C(=O)N3CCCC(O)C3)cc2)sc1C(=O)c1c(F)cccc1F (stereo not drawn) [Example G49] | 4% | 57% | 7% | 
31 | COC(=O)CN(C)C(=O)c1ccc(Nc2nc(N)c(C(=O)c3c(F)cccc3F)s2)cc1 [Example G50] | 10% | 61% | 9% | 
32 | CC(C)c1ccccc1NC(=O)c1ccc(Nc2nc(N)c(C(=O)c3c(F)cccc3F)s2)cc1 [Example G51] | −1% | 89% | 9% | 
33 | Nc1nc(Nc2ccc(C(=O)Nc3ccc4c(c3)OCO4)cc2)sc1C(=O)c1c(F)cccc1F [Example G52] | 5% | 65% | 10% | 
34 | Nc1nc(Nc2ccc(C(=O)Nc3ccccc3CO)cc2)sc1C(=O)c1c(F)cccc1F [Example G53] | 6% | 89% | 17% | 
35 | COc1ccc(NC(=O)c2ccc(Nc3nc(N)c(C(=O)c4c(F)cccc4F)s3)cc2)cc1 [Example G54] | 9% | 86% | 8% | 
36 | Nc1nc(Nc2ccc(C(=O)N3CCC(O)C3)cc2)sc1C(=O)c1c(F)cccc1F (stereo not drawn) [Example G55] | 16% | 57% | 22% | 
37 | Nc1nc(Nc2ccc(C(=O)N3CCC(O)CC3)cc2)sc1C(=O)c1c(F)cccc1F [Example G56] | 10% | 59% | 24% | 
38 | CN(C)CCN(C)C(=O)c1ccc(Nc2nc(N)c(C(=O)c3c(F)cccc3F)s2)cc1 [Example G57] | 19% | 51% | 17% | 
39 | CN(CCc1ccncc1)C(=O)c1ccc(Nc2nc(N)c(C(=O)c3c(F)cccc3F)s2)cc1 [Example G58] | 17% | 53% | 19% | 
40 | COc1ccc(NC(=O)c2ccc(Nc3nc(N)c(C(=O)c4c(F)cccc4F)s3)cc2)cc1Cl [Example G59] | 3% | 53% | 25% | 
41 | N#Cc1cccc(NC(=O)c2ccc(Nc3nc(N)c(C(=O)c4c(F)cccc4F)s3)cc2)c1 [Example G60] | 18% | 66% | 12% | 
42 | COC(=O)c1ccc(NC(=O)c2ccc(Nc3nc(N)c(C(=O)c4c(F)cccc4F)s3)cc2)cc1 [Example G61] | 19% | 58% | 19% | 

From patent publication US6720346B2, “Thiazole benzamide derivatives and pharmaceutical compositions for inhibiting cell proliferation” (Agouron Pharmaceuticals, Inc., priority 2001, dated 2004)
